The target of assay [1] is Carbonic anhydrase 14 (Homo sapiens) (UniProt Q9ULX7). As to the kind of experiment: Activation of human recombinant CA14 by CO2 hydrase assay.
Assay [2] has as its target Carbonic anhydrase 7 (Homo sapiens) (UniProt P43166). The assay is described as follows: Activation of human recombinant CA7 by CO2 hydrase assay.
In assay [3] the target is Carbonic anhydrase 2 (Homo sapiens) (UniProt P00918). As to the kind of experiment: Activation of human recombinant CA2 by CO2 hydrase assay.
The target in assay [4] is Carbonic anhydrase 1 (Homo sapiens) (UniProt P00915). As to the kind of experiment: Activation of human recombinant CA1 by CO2 hydrase assay.
Chain of Carbonic anhydrase 1 (Homo sapiens) (P00915 2-261 limits assumed): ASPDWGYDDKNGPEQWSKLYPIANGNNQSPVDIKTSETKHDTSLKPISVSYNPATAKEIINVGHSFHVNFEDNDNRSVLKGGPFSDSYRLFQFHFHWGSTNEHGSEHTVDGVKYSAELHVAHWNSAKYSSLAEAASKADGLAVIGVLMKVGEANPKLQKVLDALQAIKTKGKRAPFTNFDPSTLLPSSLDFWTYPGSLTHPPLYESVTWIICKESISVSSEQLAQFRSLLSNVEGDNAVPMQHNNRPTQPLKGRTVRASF

16 compounds from ChEMBL document CHEMBL1145387, “Carbonic anhydrase activators: activation of the human isoforms VII (cytosolic) and XIV (transmembrane) with amino acids and amines” (Bioorg Med Chem Lett, 2007) can be followed below.

Chain of Carbonic anhydrase 14 (Homo sapiens) (Q9ULX7 whole entry): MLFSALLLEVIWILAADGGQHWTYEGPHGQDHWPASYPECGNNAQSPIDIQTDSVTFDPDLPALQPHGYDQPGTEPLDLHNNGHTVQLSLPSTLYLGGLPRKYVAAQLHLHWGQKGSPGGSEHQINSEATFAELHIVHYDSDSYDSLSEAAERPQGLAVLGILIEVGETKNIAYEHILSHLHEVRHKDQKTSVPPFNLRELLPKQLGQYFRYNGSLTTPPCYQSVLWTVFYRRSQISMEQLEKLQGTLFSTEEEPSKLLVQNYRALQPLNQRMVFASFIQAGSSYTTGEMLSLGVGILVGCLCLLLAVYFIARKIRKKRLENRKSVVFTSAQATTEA
Chain of Carbonic anhydrase 7 (Homo sapiens) (P43166 whole entry): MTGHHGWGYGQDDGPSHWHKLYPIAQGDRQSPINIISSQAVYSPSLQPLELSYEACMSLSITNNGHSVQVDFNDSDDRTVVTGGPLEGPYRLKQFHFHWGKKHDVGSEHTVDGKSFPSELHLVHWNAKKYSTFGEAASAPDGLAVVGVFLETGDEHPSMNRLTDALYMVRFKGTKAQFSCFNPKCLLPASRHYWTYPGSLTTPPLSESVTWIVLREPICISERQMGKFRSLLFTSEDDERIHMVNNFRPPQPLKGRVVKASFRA

On to `NCCc1ccc(O)c(O)c1`, for which the KA was determined as 14.6 µM in assay [1] and 0.89 µM in assay [2].

As for `N[C@@H](Cc1ccc(O)cc1)C(=O)O`, the KA was 21.8 µM in assay [1], 20.3 µM in assay [2], 0.011 µM in assay [3] and 0.02 µM in assay [4].

Regarding `N[C@H](Cc1ccc(O)c(O)c1)C(=O)O`, the KA in assay [1] amounted to 36.8 µM; in assay [2], 58.3 µM.

In the case of `N[C@@H](Cc1ccc(O)c(O)c1)C(=O)O`, the KA amounted to 12.1 µM in assay [1] and 58.3 µM in assay [2].

For the compound `N[C@@H](Cc1c[nH]c2ccccc12)C(=O)O`, the KA stood at 16.5 µM in assay [1] and 57.5 µM in assay [2].

On to `NCCN1CCNCC1`, for which the KA in assay [1] is 18.3 µM; in assay [2] it was 32.5 µM.

Consider `N[C@H](Cc1c[nH]c2ccccc12)C(=O)O`, for which the KA in assay [1] came out at 18 µM; in assay [2], 39.6 µM.

Regarding `N[C@@H](Cc1c[nH]cn1)C(=O)O`, the results for the KA in assay [1] and in assay [2] were 0.9 µM and 0.92 µM, respectively.

Consider `NCc1ccccn1`, for which the values for the KA in assay [1] and in assay [2] were 21.7 µM and 43.7 µM, respectively.

Take `NCCN1CCOCC1`: the KA in assay [1] stood at 5.4 µM; in assay [2] it was 64.3 µM.

For `Nc1ccc(C[C@H](N)C(=O)O)cc1`, the KA in assay [1] was 18 µM; in assay [2], 39.6 µM; in assay [3] it was 0.15 µM; in assay [4], 0.24 µM.

Consider `NCCc1c[nH]cn1`, for which the KA in assay [1] is 0.01 µM; in assay [2], 37.5 µM.

For the compound `NCCc1ccccn1`, the KA in assay [1] was determined as 6.9 µM; in assay [2], 27.8 µM.

Turning to `NCCc1c[nH]c2ccc(O)cc12`, the KA was 6.5 µM in assay [1] and 0.93 µM in assay [2].

Take `CNC[C@@H](O)c1ccc(O)c(O)c1`: the KA in assay [1] is 36.1 µM; in assay [2], 60 µM; in assay [3] it was 96 µM; in assay [4], 0.09 µM.

`N[C@H](Cc1c[nH]cn1)C(=O)O`: the KA in assay [1] came out at 2.37 µM; in assay [2], 0.71 µM.
